Laboratory results published in patent publication US20010053783A1, “PHARMACEUTICAL COMPOUNDS” (priority 1997, published 2001).

Biological target: human 2A receptor (5-HT2A) (Homo sapiens, UniProt P28223)
Test: 5-HT2A receptor binding, displacement of [3H] ketanserin (Nelson et al.)
Conditions: human 2A receptor binding, versus 5-fluoroindolyl propyl comparator
From the text: As mentioned above, the compounds of the invention are active at the serotonin, 5-HT2A, receptor.

human 2A receptor (5-HT2A), sequence (P28223 whole entry): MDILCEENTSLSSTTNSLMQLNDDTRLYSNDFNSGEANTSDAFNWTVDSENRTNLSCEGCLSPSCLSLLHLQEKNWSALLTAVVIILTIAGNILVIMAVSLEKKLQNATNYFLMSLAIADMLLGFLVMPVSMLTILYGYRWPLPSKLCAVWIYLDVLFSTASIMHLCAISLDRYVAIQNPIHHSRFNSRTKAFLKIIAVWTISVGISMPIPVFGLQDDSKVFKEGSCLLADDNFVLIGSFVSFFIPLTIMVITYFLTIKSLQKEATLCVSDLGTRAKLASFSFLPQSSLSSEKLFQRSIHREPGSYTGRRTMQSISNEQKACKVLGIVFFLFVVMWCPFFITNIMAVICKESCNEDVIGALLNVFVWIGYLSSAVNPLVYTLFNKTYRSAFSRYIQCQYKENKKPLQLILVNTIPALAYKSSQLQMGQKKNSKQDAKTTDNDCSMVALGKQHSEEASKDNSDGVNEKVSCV

In the case of `O=S1(=O)N(CCN2CC=C(c3c[nH]c4cc(F)ccc34)CC2)c2cccc3c2N1CCC3` [1-{2-[4-(6-Fluoro-[1H]-indol-3-yl)-1,2,3,6-tetrahydro-1-pyridinyl]-1-ethyl}-5,6-dihydro-1H,4H-1,2,5-thiadiazolo[4,3,2-ij]quinoline-2,2-dioxide], the “times more active than the closest structurally related compound of EP-A 0 433 149” value is reported as “approximately twenty-eight”.
